Measurements: patent publication US6933315B2, “Derivatives of isoindigo, indigo and indirubin and methods of treating cancer” (priority 2001, dated 2005)

Legend:
MCF-7 = experiment: Growth inhibition by MTT, MCF-7 breast cancer cells; assay type: cell-based, Human; details: Homo sapiens, MCF7, 72 h exposure
Protocol: (§1) Growth inhibitory effects of NATURA and other agents on human cancer cells were determined by standard MTT (3-(4,5-dimethylthiazol-2-yl)-2,5-diphenyltetrazolium bromide Test) as described previously. Briefly, cancer cells grown exponentially were aliquoted into 96-well plates at a density of 5000 cells/200 μl per well in RPMI 1640 medium containing 10% FBS overnight. The cells in the plates were then exposed to series of dilution of indicated agent. After 72 h of incubation, 100 μl of the medium was removed from each of the wells and 50 μl of a 1 mg/ml solution of 3-(4,5-dimethylthiazol-2-yl)-2,5-diphenyltetrazolium bromide (MTT) was added to each well and the cells were incubated for additional 4 h. 200 μl of solution of 0.04 N HCl-isopropanol was added to each well to dissolve the black fromazan participates, and absorbance at 540 nm was measured on a 96-Well.
as §1, with “FIGS. 3-5 show the anticancer affects” for “Growth inhibitory effects”, “NATURA in MCF-7 breast cancer cells, DLD-1 colon cancer cells,” for “NATURA”, “LNCaP hormone-dependent prostate” for “other agents on human”, “cells. The” for “cells were determined by standard MTT (3-(4,5-dimethylthiazol-2-yl)-2,5-diphenyltetrazolium bromide Test) as described previously. Briefly,”, “fetal bovine serum (FBS)” for “FBS”, “96-Well Microplate Reader. Each experiment was repeated at least three times.” for “96-Well.”

neuroblastoma N2A cells = experiment: DNA fragmentation (ladder) in N2A neuroblastoma cells; assay type: cell-based, Mouse; details: 5 μM, 2 days
Protocol: (§2) Once cancer cells have been arrested at G1 phase by either derivatives of the invention, such as, Meisiondigo or NATURA, they will either differentiate or enter apoptosis. […] FIG. 8 confirms that Meisoindigo and NATURA cause apoptosis. The formation of DNA fragmentation (ladder) were measured, an indicator of cell apoptosis, in both LNCaP prostate and N2A neuroblastoma cells. To do this LNCaP and neuroblastoma N2A cells at exponential growth phase were exposed to indicated concentrations of Meisoindigo or NATURA or Taxol (20 nM, as a positive control) for 2 days. The cells were harvested, washed and DNA extracted. Approximately 2 μg per lane of DNA were subjected to 2% agarose gel electrophoresis.
(§3) Induction of Apoptosis: As we mentioned previously that cancer cells probably have two options after arrest at G1 phase, i.e. differentiation or apoptosis. […] To confirm our hypothesis and earlier observations, we measured poly(ADP-ribose) polymerase (PARP) degradation and the formation of DNA fragmentation (ladder), indicators of cell apoptosis, in both LNCaP prostate and N2A neuroblastoma cells. LNCaP and neuroblastoma N2A cells at exponential growth phase were exposed to indicated concentrations of Meisoindigo or NATURA or Taxol (20 nM, as a positive control) for 2 days. The cells were harvested, washed and DNA extracted. […]

cyclin D1 = experiment: Cyclin D1 protein level by Western blot in HUVEC cells; assay type: cell-based, human; details: 24 hrs; for cyclin D1 protein: 15 μM; for expression of cyclin D1: 5.0 and 15 μM
Protocol: Meisoindigo and NATURA also significant inhibit expression of cyclin D1 in HUVEC cells. Exponentially growing HUVEC cells were exposed to 5.0 and 15 μM of Meisoindigo and NATURA, 24 hrs after the exposures, the cells were harvested, washed, and total proteins extracted for Western blot analysis using a monoclonal antibody specific against cyclin D1 (Dako). […] As a result, phosphorylation of a tumor suppressor protein Rb, a native substrate of cyclin D1 mediated cdks, was diminished (data not shown).
HUVEC cells grown exponentially were treated for 24 hrs with […] of Meisoindigo and NATURA. The cells were harvested, washed, and total proteins extracted for Western blot analysis as previously described using antibodies specifically against cyclin D1 (panel A), and b-actin (equal loading control, panel B), and detected by ECL detection kit (Amersham). The levels of cyclin D1 from Panel A were quantitated by an imagine densitometor and normalized by b-action (Panel C).

LNCaP cells = experiment: DNA fragmentation (ladder) in LNCaP cells; assay type: cell-based, Human; details: 15 μM, 2 days
Protocol: as §2, §3

PC-3 = experiment: Growth inhibition by MTT, PC-3 prostate cancer cells; assay type: cell-based, Human; details: Homo sapiens, PC-3; MTT, 72 h exposure; read-out: IC50 PC-3
Protocol: as §1

ML-1 cells = experiment: Morphological differentiation of ML-1 cells; assay type: cell-based, human; details: 5 days after exposure
[1] = test system: poly(ADP-ribose) polymerase (PARP); experiment: PARP degradation by Western blot in N2A cells; assay type: cell-based, Mouse; details: 24 hours
Protocol: Induction of Apoptosis: As we mentioned previously that cancer cells probably have two options after arrest at G1 phase, i.e. differentiation or apoptosis. […] The cells were harvested, washed and DNA extracted. Approximately 2 μg per lane of DNA were subjected to 2% agarose gel electrophoresis. […] The cells were harvested, washed, and total proteins extracted for determination of PARP degradation by Western blotting as described previously. Upper panels (A & B) are imagines from ECL films, and lower panels (A′ & B′) are densities of the corresponding bands measured by an Imagine Densitometer (expressed as the percent of control).

LOVO = experiment: Growth inhibition by MTT, LOVO colon cancer cells; assay type: cell-based, Human; details: Homo sapiens, LoVo; MTT, 72 h exposure; read-out: IC50 LOVO
Protocol: as §1

CC(=O)OC1COC(N2C(=O)/C(=C3/C(=O)Nc4ccccc43)c3ccccc32)C(OC(C)=O)C1OC(C)=O [NATURA, 1-(β-D-O-Triacetyl-xylopyranosyl)-isoindigo]
IC50 (MCF-7): 2.91 ± 0.28 µM | DNA ladders (neuroblastoma N2A cells): sufficient to significantly induce DNA ladders | cyclin D1 protein (cyclin D1): almost completely lost | expression of cyclin D1 (cyclin D1): strongly inhibit | DNA fragmentation (LNCaP cells): significant DNA fragmentation | IC50 (PC-3): 2.41 ± 0.39 µM | ML-1 cells differentiated morphologically (ML-1 cells): approximately 48% | PARP protein degradation [1]: strong induction | IC50 (LOVO): 4.31 ± 0.59 µM

CN1C(=O)/C(=C2/C(=O)Nc3ccccc32)c2ccccc21 [Meisoindigo]
IC50 (MCF-7): 4.37 ± 0.31 µM | DNA ladders (neuroblastoma N2A cells): sufficient to significantly induce DNA ladders | cyclin D1 protein (cyclin D1): almost completely lost | expression of cyclin D1 (cyclin D1): strongly inhibit | DNA fragmentation (LNCaP cells): significant DNA fragmentation | IC50 (PC-3): 3.26 ± 0.51 µM | ML-1 cells differentiated morphologically (ML-1 cells): approximately 48% | PARP protein degradation [1]: strong induction | IC50 (LOVO): 5.76 ± 0.72 µM
